pIC50: −log10 of the molar value.

Broadly, the pIC50 is −log10 of the IC50, conventionally taken in molar units. A high value points to a low IC50.

For the experiment, the target named is T1, MAGL (Homo sapiens, UniProt Q99685).
T1 sequence (Q99685 1-303): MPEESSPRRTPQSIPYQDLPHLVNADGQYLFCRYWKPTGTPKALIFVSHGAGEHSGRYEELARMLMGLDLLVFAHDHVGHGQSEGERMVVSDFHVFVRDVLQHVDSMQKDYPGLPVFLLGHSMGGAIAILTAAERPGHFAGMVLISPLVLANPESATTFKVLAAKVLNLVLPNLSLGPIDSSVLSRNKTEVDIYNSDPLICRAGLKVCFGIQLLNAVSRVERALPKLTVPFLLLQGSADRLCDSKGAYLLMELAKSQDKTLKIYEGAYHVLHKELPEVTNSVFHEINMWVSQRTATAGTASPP
The experiment is described as follows: 2-AG assay: MAGL inhibitory activity by hydrolysis of 2-arachidonoylglycerol to arachidonic acid, followed by mass spectrometry. The class given is biochemical. Conditions: 15 min preincubation, 30 min reaction at RT, 8 μM 2-arachidonoylglycerol.
As to `O=C1CCC2(CN(C(=O)N3CC4(CC(Oc5ncc(F)cc5Cl)C4)C3)C2)N1` [Example 313, 2-[6-[(3-chloro-5-fluoro-2-pyridyl)oxy]-2-azaspiro[3.3]heptane-2-carbonyl]-2,5-diazaspiro[3.4]octan-6-one], the negative-log IC50 (pIC50) is 7.56.

For the molecule `O=C1CCC2(CN(C(=O)N3CC4(CC(Cc5ccnc(C(F)(F)F)n5)C4)C3)C2)N1` [Example 314, 2-[6-[[2-(trifluoromethyl)pyrimi-din-4-yl]methyl]-2-azaspiro[3.3]heptane-2-carbonyl]-2,5-diazaspiro[3.4]octan-6-one], the pIC50 was 8.06. The value for `O=C1CCC2(CN(C(=O)N3CC4(CN(Cc5cnc(C(F)(F)F)s5)C4)C3)C2)N1` [Example 315, 2-[6-[[2-(trifluoromethyl)thiazol-5-yl]methyl]-2,6-diazaspiro[3.3]heptane-2-carbonyl]-2,5-diazaspiro[3.4]octan-6-one] was 6.69; that for `O=C1CCC2(CN(C(=O)N3CC4(CN(Cc5cn[nH]c5C(F)(F)F)C4)C3)C2)N1` [Example 316, 2-[6-[[5-(trifluoromethyl)-1H-pyrazol-4-yl]methyl]-2,6-diazaspiro[3.3]heptane-2-carbonyl]-2,5-diazaspiro[3.4]octan-6-one] was 6.26. To `O=C1CCC2(CN(C(=O)N3CC4(CCN(Cc5ccc(C(F)(F)F)nn5)C4)C3)C2)N1` [Example 317, 2-[7-[[6-(trifluoromethyl)pyrida-zin-3-yl]methyl]-2,7-diazaspiro[3.4]octane-2-carbonyl]-2,5-diazaspiro[3.4]octan-6-one] belongs 5.98; to `O=C1NC2(CO1)CN(C(=O)N1CC3(C1)CN(c1cncc(F)c1)C3)C2` [Example 318, 2-[6-(5-fluoro-3-pyridyl)-2,6-diazaspiro[3.4]heptane-2-carbonyl]-7-oxa-2,5-diazaspiro[3.4]octan-6-one], 6.84. To `O=C1CCC2(CN(C(=O)N3CC4(CC(Cc5nc(C(F)(F)F)cs5)C4)C3)C2)N1` [Example 319, 2-[6-[[4-(trifluoromethyl)thiazol-2-yl]methyl]-2-azaspiro[3.3]heptane-2-carbonyl]-2,5-diazaspiro[3.4]octan-6-one] belongs 7.90; to `O=C1CCC2(CN(C(=O)N3CC4(CC(Cc5ccc6ncnn6c5)C4)C3)C2)N1` [Example 320, 2-[6-([1,2,4]triazolo[1,5-a]pyridin-6-ylmethyl)-2-azaspiro[3.3]heptane-2-carbonyl]-2,5-diazaspiro[3.4]octan-6-one], 6.77. Molecule `O=C1CCC2(CN(C(=O)N3CC4(CC(Cc5ccc6[nH]ncc6n5)C4)C3)C2)N1` [Example 321, 2-[6-(1H-pyrazolo[4,3-b]pyridin-5-ylmethyl)-2-azaspiro[3.3]heptane-2-carbonyl]-2,5-diazaspiro[3.4]octan-6-one] had a negative logarithm of the IC50 (pIC50) of 7.05. To `N=S(=O)(c1cc(F)cc(CC2CC3(C2)CN(C(=O)N2CC4(COCC(=O)N4)C2)C3)c1)C(F)(F)F` (centres unmarked) [Example 322, 2-[6-[[3-fluoro-5-(trifluoromethylsulfoni-midoyl)phenyl]methyl]-2-azaspiro[3.3]heptane-2-carbonyl]-8-oxa-2,5-diazaspiro[3.5]nonan-6-one] belongs 8.36; to `O=C1CCC2(CN(C(=O)N3CC4(CCC(Cc5nnc(C(F)(F)F)[nH]5)CC4)C3)C2)N1` [Example 323, 2-[7-[[5-(trifluoromethyl)-4H-1,2,4-triazol-3-yl]methyl]-2-azaspiro[3.5]nonane-2-carbonyl]-2,5-diazaspiro[3.4]octan-6-one], 9.77; to `O=C1CCC2(CN(C(=O)N3CC4(CC(Cc5cn(C6CC6)nc5C(F)(F)F)C4)C3)C2)N1` [Example 324], 8.47. `Cn1ncc(C(F)(F)F)c1CN1CCC2(CC1)CN(C(=O)N1CC3(CCC(=O)N3)C1)C2` [Example 325, 2-[7-[[2-methyl-4-(trifluoromethyl)pyrazol-3-yl]methyl]-2,7-diazaspiro[3.5]nonane-2-carbonyl]-2,5-diazaspiro[3.4]octan-6-one] showed a pIC50 of 8.41. Consider `Cc1cc(C(F)(F)F)nn1CC1CC2(C1)CN(C(=O)N1CC3(CCC(=O)N3)C1)C2` [Example 326, 2-[6-[[5-methyl-3-(trifluoromethyl)pyrazol-1-yl]methyl]-2-azaspiro[3.3]heptane-2-carbonyl]-2,5-diazaspiro[3.4]octan-6-one], for which the negative logarithm of the IC50 (pIC50) is 8.19. Regarding `O=C1CCC2(CN(C(=O)N3CC4(CC(Cc5nccc(C(F)(F)F)n5)C4)C3)C2)N1` [Example 327, 2-[6-[[4-(trifluoromethyl)pyrimi-din-2-yl]methyl]-2-azaspiro[3.3]heptane-2-carbonyl]-2,5-diazaspiro[3.4]octan-6-one], the negative logarithm of the IC50 (pIC50) was 8.12. On to `Cc1cc(C(F)(F)F)n(CC2CC3(C2)CN(C(=O)N2CC4(CCC(=O)N4)C2)C3)n1` [Example 328, 2-[6-[[3-methyl-5-(trifluoromethyl)pyrazol-1-yl]methyl]-2-azaspiro[3.3]heptane-2-carbonyl]-2,5-diazaspiro[3.4]octan-6-one], for which the negative-log IC50 (pIC50) is 7.80. Take `O=C1CCC2(CN(C(=O)N3CC4(CC(Cc5cc(C(F)(F)F)c[nH]c5=O)C4)C3)C2)N1` [Example 329, 2-[6-[[2-keto-5-(trifluoromethyl)-1H-pyridin-3-yl]methyl]-2-azaspiro[3.3]heptane-2-carbonyl]-2,5-diazaspiro[3.4]octan-6-one]: the negative-log IC50 (pIC50) was 7.79.

`O=C1CCC2(CN(C(=O)N3CC4(CC(Cn5cnc(C6(C(F)(F)F)CC6)n5)C4)C3)C2)N1` [Example 330, 2-[6-[[3-[1-(trifluoromethyl)cyclopro-pyl]-1,2,4-triazol-1-yl]methyl]-2-azaspiro[3.3]heptane-2-carbonyl]-2,5-diazaspiro[3.4]octan-6-one] showed a pIC50 of 7.61.

`CC(C)(C)c1ncc(CN2CC3(C2)CN(C(=O)N2CC4(CCC(=O)N4)C2)C3)s1` [Example 331, 2-[6-[(2-tert-butylthiazol-5-yl)methyl]-2,6-diazaspiro[3.3]heptane-2-carbonyl]-2,5-diazaspiro[3.4]octan-6-one] had a pIC50 of 7.34. For `O=C1CCC2(CN(C(=O)N3CC4(CCN(Cc5cc(C(F)(F)F)sn5)CC4)C3)C2)N1` [Example 332, 2-[7-[[5-(trifluoromethyl)isothia-zol-3-yl]methyl]-2,7-diazaspiro[3.5]nonane-2-carbonyl]-2,5-diazaspiro[3.4]octan-6-one], the pIC50 was 7.28. As to `O=C1CCC2(CN(C(=O)N3CC4(CC(Cc5n[nH]c(C(F)(F)F)n5)C4)C3)C2)N1` [Example 333, 2-[6-[[5-(trifluoromethyl)-1H-1,2,4-triazol-3-yl]methyl]-2-azaspiro[3.3]heptane-2-carbonyl]-2,5-diazaspiro[3.4]octan-6-one], the negative logarithm of the IC50 (pIC50) is 7.06. To `O=C1CCC2(CN(C(=O)N3CC4(CN(Cc5snnc5C5CCC5)C4)C3)C2)N1` [Example 334, 2-[6-[(4-cyclobutylthiadiazol-5-yl)methyl]-2,6-diazaspiro[3.3]heptane-2-carbonyl]-2,5-diazaspiro[3.4]octan-6-one] belongs 7.05; to `N=S(=O)(c1ccc(OC2CC3(C2)CN(C(=O)N2CC4(CCC(=O)N4)C2)C3)cc1)C(F)(F)F` (centres unmarked) [Example 335], 7.00.
